Measurements reported in PMC7898037, “Improving mitochondria and ER stability helps eliminate upper motor neuron degeneration that occurs due to mSOD1 toxicity and TDP‐43 pathology” (Clinical and Translational Medicine, 2021).
Values joined by “and” are separate entries in the source; they are usually repeats but may differ in a detail not shown here. Identical values can stand only once.

Experiments:
[1] = design: method as in PMID 22189273, PMID 22837812; settings: cited from earlier work
[2] = tested on: misfolded SOD1 in UMNs of hSOD1^G93A‐UeGFP mice; test: Quantification of misfolded SOD1 (B8H10) in UMNs; format: in vivo; settings: for misfolded SOD1 level in UMNs (average integrated density): hSOD1^G93A‐UeGFP mice
Procedure: hSOD1^G93A‐UeGFP, prpTDP‐43^A315T‐UeGFP and WT‐UeGFP mice were weighed and the required NU‐9 dose per weight was calculated (20 or 100 mg/kg), which was administered once daily by oral gavage, starting at postnatal day (P)60 and continuing until P120. Animals from the untreated group received the vehicle (NMP and olive oil) only. For oral administration purposes, 20 ga × 38 mm plastic feeding tubes were used (Instech Laboratories, Inc). The gavage tip was inserted into the mouth directly over the tongue and into the pharynx. While observing the swallowing reflex, the tip was safely and smoothly slid into the esophagus. Once the administration was completed, the gavage tip was pulled straight out.
The antibodies used are as follows: anti‐GFP (1:1000, Invitrogen; or 1:1000, Abcam) and anti‐misfolded SOD1 (B8H10, 1:250, Médimabs). Briefly, sections were treated with blocking solution (PBS, 0.05% BSA, 2% FBS, 1% Triton X‐100, and 0.1% saponin) for 30 min at room temperature and incubated with primary antibody diluted in blocking solution overnight at 4°C. Appropriate secondary fluorescent antibodies (1:500, AlexaFluor‐conjugated, Invitrogen) were added to the blocking solution at room temperature for 2 h in the dark.
50‐µm thick sections of primary motor cortex were captured using the 20× objective on an inverted epifluorescent Eclipse TE2000‐E microscope using the same settings and exposure time for all of the samples. eGFP positive (eGFP^+) UMNs in focal plane with sharp boundaries and a visible nucleus were traced using ImageJ (NIH). ROI were transferred to the misfolded SOD1 channel, and the integrated density was measured to determine the levels of misfolded SOD1 in GFP^+ UMNs only. Fifty to 90 UMNs were analyzed per mouse, and the average integrated density was reported per experimental group. For visualization purposes of misfolded SOD1 fluorescence intensity, nd2 files were opened in ImageJ and spectrum look‐up table (LUT) was applied to the appropriate channel.

cytochrome P450s = settings: cited from earlier work

## C[C@H](Oc1cc(C(F)(F)F)cc(C(F)(F)F)c1)C1CC(=O)CC(=O)C1 [NU‐9]
[1]
  Solubility (aqueous): ≥ 100 µM and ≥ 37 µg/ml
[2]; hSOD1G93A-UeGFP (NU-9 20 mg/kg/day)
  Fig. 3E group mean (integrated density of misfolded SOD1 fluorescence in UMNs): 132928
[2]; hSOD1G93A-UeGFP (NU-9 100 mg/kg/day)
  Fig. 3E group mean (integrated density of misfolded SOD1 fluorescence in UMNs): 120052
[2]; 20 mg/kg/day oral gavage P60–P120
  misfolded SOD1 level in UMNs (average integrated density): 1.33 × 10^5 ± 0.11 × 10^5 au
[2]; 100 mg/kg/day oral gavage P60–P120
  misfolded SOD1 level in UMNs (average integrated density): 1.2 × 10^5 ± 0.07 × 10^5 au
Cytochrome P450s; 5 CYPs, at 3 µM
  CYP inhibition: 5 CYPs; <10% at 3 µM
Cytochrome P450s
  inhibition of cytochrome P450s: little inhibition
